Cytotoxicity data for 72 compounds are collected here from ChEMBL document CHEMBL3507680, “University of Dundee, Gates Library screen for HepG2 cell viability”.

A short description of this series: Human HepG2 cell viability assay in 384 well format. The format is toxicity, cell-based. Also noted: dose 125 nL, time 70.5 hour; cytotoxicity at 70.5 h: concentration not given beside the values. The note with it: HepG2 cells, read-out: Inhibition.
On to `N#Cc1ccccc1NC(=O)c1ccc2c(c1)OCO2`, for which the cytotoxicity at 70.5 h is -0.874%.
For `O=C1CC(N2CCN(c3ccc(O)cc3)CC2)C(=O)N1Cc1cccs1` (configuration not stated), the cytotoxicity at 70.5 h was -7.69%.
As for `O=c1c2c(ncn1CCO)nc1n2CCC1`, the cytotoxicity at 70.5 h was -5.61%.
In the case of `O=C1CC(N2CCN(c3ccc(F)cc3)CC2)C(=O)N1Cc1cccs1` (configuration not stated), the cytotoxicity at 70.5 h is -12.3%.
As for `O=C(O)c1cccc2c(Br)cccc12`, the cytotoxicity at 70.5 h was -0.692%.
`Cc1ccc(CNC(=O)CCC(=O)NCCC(C)C)o1`: the cytotoxicity at 70.5 h was determined as 18.9%.
In the case of `O=C(CCC(=O)NCc1cccc(Br)c1)NCCN1CCCC1`, the cytotoxicity at 70.5 h turned out to be 23.6%.
For the compound `CN(C)c1nc2n(c(=O)n1)CCN2C(=O)Nc1ccc(Cl)cc1`, the cytotoxicity at 70.5 h was -6.29%.
As for `CN(C)c1nc2n(c(=O)n1)CCN2C(=O)Nc1ccc(Cl)c(Cl)c1`, the cytotoxicity at 70.5 h is -10.9%.
Turning to `O=C(COCC(=O)N(c1ccccc1)c1ccccc1)N1CCOCC1`, the cytotoxicity at 70.5 h was -5.79%.
On to `O=C(c1ccnn1COc1ccc(Cl)cc1)N1CCCC1`, for which the cytotoxicity at 70.5 h was -1.93%.
With `CCNc1nc(N(C)C)nc(-n2cnc(SC)n2)n1`, the cytotoxicity at 70.5 h is -12%.
For the compound `CSc1ncn(-c2nc(NC3CC3)nc(N(C)C)n2)n1`, the cytotoxicity at 70.5 h was -25.9%.
Regarding `CCN(c1ccccc1C(=O)O)S(=O)(=O)c1cccc2cccnc12`, the cytotoxicity at 70.5 h was found to be 1.89%.
As for `CCc1oc2ccc(NS(=O)(=O)CC)cc2c1C(=O)OC`, the cytotoxicity at 70.5 h is -5.49%.
As to `Cc1cc(N2CCC(Cc3cccnc3)CC2)ncn1`, the cytotoxicity at 70.5 h stood at 23.3%.
On to `Cc1cc(N2CCC(Cc3ncccn3)C2)ncn1` (configuration not stated), for which the cytotoxicity at 70.5 h is -6.02%.
For `NC(=O)c1cn[nH]c1C1CCCN1C(=O)c1ccccn1` (configuration not stated), the cytotoxicity at 70.5 h was -4.23%.
Consider `O=C(CO)N1CCCC(c2cc(C(F)(F)F)[nH]n2)C1` (configuration not stated), for which the cytotoxicity at 70.5 h was -2.3%.
In the case of `Cc1n[nH]c(C)c1S(=O)(=O)N1CCC(Oc2ccccc2F)CC1`, the cytotoxicity at 70.5 h is -7.37%.
On to `Nc1cc(-c2cncnc2C2CCN(C(=O)c3ccccc3)C2)ccn1` (configuration not stated), for which the cytotoxicity at 70.5 h was 2.08%.
Regarding `O=C(NCC1(O)COCCN(Cc2cccc(O)c2)C1)c1cscn1` (configuration not stated), the cytotoxicity at 70.5 h was -7.81%.
On to `Cc1cc(-c2ccc(=O)n(C3CCN(S(=O)(=O)N(C)C)CC3)n2)c(C)o1`, for which the cytotoxicity at 70.5 h stood at 3.38%.
Turning to `CCS(=O)(=O)N1CCC(n2nc(-c3cc(C)oc3C)ccc2=O)CC1`, the cytotoxicity at 70.5 h is 24.5%.
Take `CCN1CCCC1CNCc1cc2ccccc2[nH]c1=O` (configuration not stated): the cytotoxicity at 70.5 h is -5.02%.
As for `COc1cccc(-c2nccc(C3CCCN3C)n2)c1` (configuration not stated), the cytotoxicity at 70.5 h came to 26.3%.
For the compound `CN1CCCCC1c1ccc(-n2ccnc2)nc1` (configuration not stated), the cytotoxicity at 70.5 h was -2.08%.
For `Cc1cc(C)nc(C2CCCN2C(=O)c2cnco2)n1` (configuration not stated), the cytotoxicity at 70.5 h was 33.6%.
`COCCN1CCCC1c1ccnc(-c2ccccc2)n1` (configuration not stated): the cytotoxicity at 70.5 h is -4.49%.
In the case of `CCn1cc(S(=O)(=O)N2CCCC3(CC=CNC3=O)C2)cn1` (configuration not stated), the cytotoxicity at 70.5 h was -0.325%.
The result for `COc1ccccc1C1(O)CCCN(C(=O)c2csc(C(C)=O)c2)C1` (configuration not stated) reads -1.27%.
As to `CC(C)c1nc(O)c2nnn(C[C@H]3CCCN(Cc4ccsc4)C3)c2n1`, the cytotoxicity at 70.5 h is -1.06%.
`CCN1CCCC1CNCc1cc2cc(OC)ccc2[nH]c1=O` (configuration not stated): the cytotoxicity at 70.5 h is -0.0295%.
`COc1cccc(CCC2CCCCN2)c1` (configuration not stated): the cytotoxicity at 70.5 h stood at 0.0655%.
Take `CC(C)(C)OC(=O)N1CCN(c2cccnc2)CC1C(=O)O` (configuration not stated): the cytotoxicity at 70.5 h was -0.358%.
The result for `CN(C)C(=O)c1c[nH]nc1C1CCN(S(=O)(=O)c2ccc(Cl)cc2)CC1` reads 17.9%.
Turning to `CC(=O)N1CCC(c2nccnc2CNC(=O)c2cc[nH]n2)CC1`, the cytotoxicity at 70.5 h is -4.85%.
As to `CN(C(=O)c1cc(F)ccc1F)[C@@H]1CC[C@@H](O)[C@@H]1O`, the cytotoxicity at 70.5 h was -2.95%.
The result for `CNC(=O)C1CCCN(C(=O)c2ccccc2-n2cc(CN)cn2)C1` (configuration not stated) reads 2.43%.
In the case of `CO[C@@H]1CCC[C@@H](N(C)C(=O)c2cc(F)ccc2F)[C@H]1O`, the cytotoxicity at 70.5 h is -3.32%.
Take `Cc1noc(C)c1CCC(=O)N[C@@H]1CCC[C@@H](Oc2cccnc2)[C@@H]1O`: the cytotoxicity at 70.5 h is -3.39%.
In the case of `Cc1noc(C2(C)CCN(C(=O)C(C)C)CC2)n1` it was -5.14%; in that of `CCC(CC)N1CCC(c2[nH]ncc2S(C)(=O)=O)C1` (configuration not stated), -5.29%; in that of `CN(C)C(=O)C1(C)CN(Cc2cn(C)c3ccccc23)CCO1` (configuration not stated), -4.04%.
In the case of `CC(C)(C)CN1CCC(c2nccnc2Nc2cnccn2)CC1` it was -1.64%; in that of `Cc1c(CCC(=O)N2CCCC2c2ccnc(N(C)C)c2)cnn1C` (configuration not stated), -1.8%.
On to `Cc1cc(CN2CCc3nc(C(C)C)nc(O)c3CC2)c(C)s1`, for which the cytotoxicity at 70.5 h was -0.545%.
In the case of `NC(=O)c1cn[nH]c1C1CCCN1C(=O)COc1ccccc1` (configuration not stated), the cytotoxicity at 70.5 h was -3.18%.
Take `CN(C)C(=O)c1c[nH]nc1C1CCN(S(=O)(=O)c2cccc(Cl)c2)CC1`: the cytotoxicity at 70.5 h was 9.14%.
In the case of `O=C(CC1CC1)N1CCC(O)(CN2CCN(c3ccccc3)CC2)C1` (configuration not stated) it was 5.49%.
In the case of `Cc1nc(C)c(C(=O)N2CCCC2(C)C(=O)NC2CCCC2)s1` (configuration not stated) it was -3.63%; in that of `Cc1ccc(-c2cc(C)nc(C3CCCN3S(C)(=O)=O)n2)cc1` (configuration not stated), -8.04%.
As for `O=C(Nc1ccc(Cl)cn1)c1cncc(C2CCNCC2)n1`, the cytotoxicity at 70.5 h was -7.54%.
In the case of `Cc1ccc(-c2nnc(CNC(=O)c3cccnc3)o2)cn1` it was -16.3%; in that of `Cc1cncnc1C1CCN(C(=O)CN(C)C)CC1`, -8.84%.
Turning to `Cc1cc(N(C)C)nc(N2CCn3c(C)nnc3C2)n1`, the cytotoxicity at 70.5 h is -17.7%.
The result for `CS(=O)(=O)CCN1CCSCC1c1ccc(Cl)cc1` (configuration not stated) reads -1.17%; that for `CCc1cc(CNC(=O)c2cc(NC(=O)C(C)C)ccc2Cl)[nH]n1`, -9.06%.
In the case of `CC(C)OCCS(=O)(=O)N1CCN(Cc2ccco2)CC1`, the cytotoxicity at 70.5 h was -4.45%.
On to `CNC(=O)Cc1ccc(NC(=O)NCc2nc(C)sc2C)cc1`, for which the cytotoxicity at 70.5 h was 13.2%.
In the case of `CCN(C)S(=O)(=O)N1CCC(C(O)c2ccc(Cl)cc2)CC1` (configuration not stated) it was -8.06%; in that of `Cc1cn2c(n1)C(CNCc1cnn3ccccc13)CCC2` (configuration not stated), -5.6%; in that of `CCS(=O)(=O)Nc1ccc2[nH]c(C3CCC3)nc2c1`, -6.11%.
In the case of `Cc1cc(N(C)C)nc(N2CCn3c(nnc3C(C)C)C2)n1` it was 13.6%; in that of `CC(C)Cc1cc(C(=O)N2CCC(Cc3cnn(C)c3)C2)cc(O)n1` (configuration not stated), -11.1%.
The result for `CN(CC(=O)N(C)C(c1cccnc1)c1ccc(F)c(F)c1)C1CC1` (configuration not stated) reads 22.6%.
As for `COCCNC(=O)N1CCC(NC(C)C)CC1`, the cytotoxicity at 70.5 h worked out at 5.14%.
Take `Cc1oc(C)c(C(=O)Nc2ccccn2)c1C`: the cytotoxicity at 70.5 h is -10.7%.
`O=S(=O)(CCCn1cncn1)Cc1ccccc1Cl`: the cytotoxicity at 70.5 h is -6.92%.
As to `CCN1CCc2cc(-c3cncn3CCNC3CCS(=O)(=O)C3)ccc21` (configuration not stated), the cytotoxicity at 70.5 h was -5.23%.
On to `NC[C@H]1CC[C@H](c2c(C(N)=O)sc3ccccc32)CC1`, for which the cytotoxicity at 70.5 h was -3.54%.
In the case of `CC(C)(C)C(=O)NC(c1nccs1)C1CCN(CC2CCCCC2)CC1` (configuration not stated) it was 33.7%.
